Results as given in ChEMBL document CHEMBL3867469, “Discovery of phenoxyindazoles and phenylthioindazoles as RORγ inverse agonists” (Bioorg Med Chem Lett, 2016).

Assays:
[1] = Photocytotoxicity against human neonatal keratinocytes assessed as decrease in cell viability preincubated for 30 mins followed by 5 J/cm2 UV light irradiation for 15 mins measured after 24 hrs by neutral red dye based assay; type: toxicity; conditions: neonatal keratinocyte
[2] = biological target: T1, Nuclear receptor ROR-gamma (Homo sapiens, UniProt P51449)
T1 sequence (P51449 whole entry): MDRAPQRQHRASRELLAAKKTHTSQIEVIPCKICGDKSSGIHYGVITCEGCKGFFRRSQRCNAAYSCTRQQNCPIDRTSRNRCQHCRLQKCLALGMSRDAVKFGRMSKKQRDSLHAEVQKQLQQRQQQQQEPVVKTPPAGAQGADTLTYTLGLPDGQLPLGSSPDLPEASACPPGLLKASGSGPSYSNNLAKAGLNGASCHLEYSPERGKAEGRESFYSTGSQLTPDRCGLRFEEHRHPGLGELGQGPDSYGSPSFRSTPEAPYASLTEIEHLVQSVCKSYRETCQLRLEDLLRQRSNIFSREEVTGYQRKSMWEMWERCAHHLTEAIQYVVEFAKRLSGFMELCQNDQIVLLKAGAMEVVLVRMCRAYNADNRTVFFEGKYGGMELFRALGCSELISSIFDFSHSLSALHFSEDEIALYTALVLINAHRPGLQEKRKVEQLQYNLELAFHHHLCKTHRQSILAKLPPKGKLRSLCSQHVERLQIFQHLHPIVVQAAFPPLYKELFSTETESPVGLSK
Description: Inverse agonist activity at GAL4 DBD-fused RORgammat LBD (unknown origin) expressed in HG5LN cells after 18 hrs by luciferase reporter gene assay

physchem = conditions: buffer, pH 6.5
[3] = biological target: T2, Retinoic acid receptor gamma (Homo sapiens, UniProt P13631)
T2 sequence (P13631 whole entry): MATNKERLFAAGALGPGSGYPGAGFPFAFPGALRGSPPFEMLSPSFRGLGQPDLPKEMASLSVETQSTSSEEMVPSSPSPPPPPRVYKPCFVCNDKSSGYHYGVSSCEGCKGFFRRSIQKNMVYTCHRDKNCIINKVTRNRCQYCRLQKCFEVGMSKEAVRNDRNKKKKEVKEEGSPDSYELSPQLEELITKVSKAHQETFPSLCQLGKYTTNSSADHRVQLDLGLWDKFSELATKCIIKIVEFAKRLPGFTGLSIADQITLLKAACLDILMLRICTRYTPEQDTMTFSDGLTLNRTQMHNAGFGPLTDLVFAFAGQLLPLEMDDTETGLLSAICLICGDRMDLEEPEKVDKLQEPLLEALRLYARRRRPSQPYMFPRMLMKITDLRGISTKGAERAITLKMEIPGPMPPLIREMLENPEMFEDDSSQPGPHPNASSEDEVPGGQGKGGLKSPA
Description: Inverse agonist activity at GAL4 DBD-fused RARgamma LBD (unknown origin) expressed in human HG5LN cells after 18 hrs by luciferase reporter gene assay

[4] = rat, microsomes
Description: Stability in rat microsomes

in vitro [5] = conditions: human, hepatocytes
in vitro [6] = conditions: human, plasma
Description: Fraction unbound in human plasma at 5 uM after 4 hrs by equilibrium dialysis based LC-MS/MS analysis

[7] = biological target: T1, Nuclear receptor ROR-gamma; assay: Inverse agonist activity at RORgamma in human CD4+ T cells assessed as inhibition of IL-17A release after 4 days by HTRF assay; type: cell-based, T-cell
[8] = biological target: T3, Nuclear receptor ROR-alpha (Homo sapiens, UniProt P35398)
T3 sequence (P35398 whole entry): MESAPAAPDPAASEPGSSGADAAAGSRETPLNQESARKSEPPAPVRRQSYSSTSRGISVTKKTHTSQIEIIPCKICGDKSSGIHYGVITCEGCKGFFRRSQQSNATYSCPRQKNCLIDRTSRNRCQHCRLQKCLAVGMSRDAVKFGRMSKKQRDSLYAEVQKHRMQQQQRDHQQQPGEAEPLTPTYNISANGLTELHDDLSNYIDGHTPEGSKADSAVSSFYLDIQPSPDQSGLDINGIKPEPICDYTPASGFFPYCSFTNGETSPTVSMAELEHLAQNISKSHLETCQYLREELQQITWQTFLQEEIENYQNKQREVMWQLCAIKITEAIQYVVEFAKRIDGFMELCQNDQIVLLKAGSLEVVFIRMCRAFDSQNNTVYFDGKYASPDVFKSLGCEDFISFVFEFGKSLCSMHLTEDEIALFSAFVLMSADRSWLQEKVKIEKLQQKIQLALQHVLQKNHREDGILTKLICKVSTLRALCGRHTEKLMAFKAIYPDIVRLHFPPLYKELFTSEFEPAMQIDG
Description: Inverse agonist activity at GAL4 DBD-fused RORalpha LBD (unknown origin) expressed in HG5LN cells after 18 hrs by luciferase reporter gene assay

in vitro [9] = conditions: human, neonatal keratinocytes
Description: Photocytotoxicity against human neonatal keratinocytes assessed as decrease in cell viability by measuring ratio of IC50 in presence of UV to IC50 in absence of UV after 30 mins by neutral red dye based assay

Structure (SMILES) | Activity [1] | IC50 [2] [nM] | logD (physchem) | IC50 [3] [nM] | Stability [4] | hepatocyte CLint at […], 1 µM (in vitro [5]) [µL/min/1e6 cells] | fraction unbound at 4 h, 5 µM (in vitro [6]) | IC50 [7] [nM] | IC50 [8] [nM] | selectivity ratio at 0.5 h (in vitro [9])
O=C(O)c1ccc(-n2nc(Sc3c(Cl)cccc3Cl)c3ccccc32)cc1 | Toxic | 2500 | 2.9 | 4400 |  |  |  |  |  | 
CN(C)C(=O)c1ccc2c(c1)c(Sc1c(Cl)cccc1Cl)nn2-c1ccc(C(=O)O)cc1 | Toxic | 590 | 1.6 | > 10000 |  |  |  |  |  | 
Cc1cccc(Cl)c1Oc1nn(-c2ccc(C(=O)O)cc2)c2ccc(C(=O)N(C)C)cc12 |  | 120 | 1.5 | > 10000 | Unstable | 54 | 0.024 | 150 | > 10000 | 36
